The experiment deals with T1, zfDHHC15 (Danio rerio, UniProt F1QXD3, C153S).
T1 sequence (F1QXD3 1-332 C153S): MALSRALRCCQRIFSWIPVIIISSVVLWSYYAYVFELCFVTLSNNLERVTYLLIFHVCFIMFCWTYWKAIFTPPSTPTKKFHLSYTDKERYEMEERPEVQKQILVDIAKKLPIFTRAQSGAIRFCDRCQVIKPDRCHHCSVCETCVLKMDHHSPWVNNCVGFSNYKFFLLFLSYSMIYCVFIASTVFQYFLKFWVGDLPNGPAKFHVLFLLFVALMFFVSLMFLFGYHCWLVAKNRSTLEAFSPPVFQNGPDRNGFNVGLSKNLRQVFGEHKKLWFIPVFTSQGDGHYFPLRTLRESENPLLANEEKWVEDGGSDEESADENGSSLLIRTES
Briefly: X-ray crystal structure. The conditions noted are these: 2.54 Å; acyl-binding cavity; ligand modelled into density, not added.

This passage reports X-ray crystal structure results from publication PMC6317078 (Science (New York, N.Y.), 2018).

The structures appear in SMILES notation.

With `CCCCCCCCCCCCCCCC(=O)O` [palmitic acid], the X-ray crystal structure result is given as “continuous density in this cavity, which we modeled as a palmitic acid”.
